Here are results for 52 molecules from ChEMBL document CHEMBL3301361, “Experimental in vitro DMPK and physicochemical data on a set of publicly disclosed compounds”.

Structures are written as SMILES. Converted amounts (≈) assume the structure as drawn.

Series [1] in a line: in vitro. The following applies: SD, HW or BN, rat, plasma.
The nature of series [2]: physchem. The note with it: octan-1-ol/water.
Series [3] can be described thus: in vitro. The following applies: human, plasma.
The nature of series [4]: in vitro. The note with it: human.
A short description of series [5]: physchem. The following applies: pH 7.4 buffer.

In general, fraction unbound refers to the share of the substance not bound to proteins or other matrix. Turning to `O=C(NCCc1ccc(Cl)cc1)c1cccnc1`, in series [1], the fraction unbound at 5 h is 0.0854.

In series [1], `COc1ccccc1OCC(O)CN1CCN(CC(=O)Nc2c(C)cccc2C)CC1` (centres undefined) [RANOLAZINE] showed a fraction unbound at 5 h of 0.465.

Molecule `Cc1cc(-n2cnc3ccc(N[C@@H](C)c4ncc(F)cn4)nc32)n[nH]1` showed a fraction unbound at 5 h in series [1] of 0.483.

For the molecule `O=C(NCC1CCC1)c1nc(OCCOCCO)ccc1NC(=O)c1ccnc2ccccc12`, in series [1], the fraction unbound at 5 h is 0.03.

For the molecule `CC(C)(C)OC(=O)NC[C@H]1CC[C@H](CNC(=O)c2cc(-c3ccc(CN)cc3)nc3ccccc23)CC1`, the fraction unbound at 5 h in series [1] was 0.0139.

With `COc1ccc(-c2nc(-c3ccccn3)no2)cc1`, the fraction unbound at 5 h in series [1] is 0.0544.

Molecule `Cc1csc2c(N3CCN(C(=O)c4ccc(C(C)(C)C)cc4)CC3)ncnc12` had a fraction unbound at 5 h in series [1] of 0.0043.

Regarding `CC(=O)N1CCN(c2nc(NCC(C)c3ccc(Cl)cc3)c3c(n2)C(=O)N(C(C)C)C3)CC1` (centres undefined), in series [1], the fraction unbound at 5 h is 0.142.

Consider `CC(=O)N1CCN(c2nc(NCc3ccc(OC(F)(F)F)cc3)c3c(n2)C(=O)N(C(C)C)C3)CC1`, for which, in series [1], the fraction unbound at 5 h was 0.151.

In series [1], `CC(C)(C)OC(=O)NC[C@H]1CC[C@H](CNC(=O)c2cc(-c3cccc(CN)c3)nc3ccccc23)CC1` gave a fraction unbound at 5 h of 0.0171.

In the case of `Cc1ccc(-c2nnc(Nc3ccc(C(=O)N(C)C)cc3)c3ccccc23)cc1S(=O)(=O)N(C)C`, the fraction unbound at 5 h in series [1] was 0.0209.

In series [1], `O=C(O)Cc1cn(-c2ccccc2)nc1-c1ccc(Cl)cc1` [LONAZOLAC] showed a fraction unbound at 5 h of 0.0018.

In turn, `Cc1ccccc1Nc1nc(N)nc(C)c1Br` showed a fraction unbound at 5 h in series [1] of 0.0752.

For the molecule `CN(C)CCOC1CN(c2cc(C(=O)NC[C@H]3CC[C@H](CNC(=O)OC(C)(C)C)CC3)c3ccccc3n2)C1`, the fraction unbound at 5 h in series [1] was 0.129.

`O=S(=O)(Nc1ncns1)c1cc(F)c(Oc2cc(F)c(Cl)cc2-c2cn[nH]c2)cc1F` showed a fraction unbound at 5 h in series [1] of 0.002.

Molecule `COc1ccc(NC(=O)c2ccnc3ccccc23)c(C(=O)NCC2CCC2)n1` had a fraction unbound at 5 h in series [1] of 0.0009.

For `Cc1cccc2cc(CN(Cc3ccco3)C(=O)Nc3cccc(C#N)c3)c(Cl)nc12`, the fraction unbound at 5 h in series [1] was 0.0009.

In turn, `C[C@@H](Oc1ccccc1-c1cccc([N+](=O)[O-])c1)C1=NCCN1` showed a fraction unbound at 5 h in series [1] of 0.403.

Molecule `N=C(N)c1ccc2nc(-c3cccc(-c4ccccc4)c3O)[nH]c2c1` showed a fraction unbound at 5 h in series [1] of 0.0139.

Molecule `Cc1ccc(OCC(O)C(C)NC(C)C)c2c1CCC2` (centres undefined) [ZENIDOLOL] showed a fraction unbound at 5 h in series [1] of 0.216.

For `CC(C(=O)O[C@@H]1CC[N+](C)(C)C1)(c1ccccc1)C1CCCC1` (some centres undefined), in series [1], the free fraction (fraction unbound) at 5 h is 0.299.

`O=C(Nc1ccccc1)Nc1nc(-c2ccccc2)cs1` had a fraction unbound at 5 h in series [1] of 0.0005.

Usually logD stands for lipophilicity at a set pH, counting ionised and neutral species. The low end stands for a more hydrophilic compound, the high end for a more lipophilic compound. In general, microsomal CLint refers to the capacity of the preparation to metabolise the compound, expressed as a volume cleared per time. One may read the solubility (thermodynamic) as the concentration in solution at equilibrium with solid. Molecule `O=C(NC[C@@H](O)CN1CCC(Oc2ccc(Cl)c(Cl)c2)CC1)c1cc(=O)[nH]c2ccccc12` came in with a logD in series [2] (pH 7.4, LogD7.4) of 3.48. In series [3] (PPB), this molecule gave a fraction unbound at 5 h of 0.0183. In series [4] (liver microsomes), this molecule had a microsomal CLint of less than 3 µL/min/mg. In addition, in series [5], the solubility (thermodynamic) was determined as 15.8 µM (≈ 7.75 µg/mL).

With `O=C(CC12CC3CC(CC(C3)C1)C2)Nc1cccc2c(=O)n(C[C@H]3CCCN3)ccc12`, the fraction unbound at 5 h in series [1] is 0.151.

For `COc1cc(F)c(C(C)C)cc1-c1ccc(C(F)(F)F)cc1CN1C(=O)O[C@H](c2cc(C(F)(F)F)cc(C(F)(F)F)c2)[C@@H]1C` [ANACETRAPIB], the fraction unbound at 5 h in series [1] is 0.0328.

In series [1], `CN1CCC(N2CCN(C(=O)[C@H](NC(=O)c3ccc4cc[nH]c4c3)c3ccccc3)CC2)CC1` [LY-517717] gave a fraction unbound at 5 h of 0.54.

`CC(C)C(NC(=O)c1cc(Cl)ccc1C(F)(F)F)C(=O)c1ccc([N+](=O)[O-])cc1` (centres undefined): in series [1], the fraction unbound at 5 h was 0.024.

Take `CC(=O)N1CCN(c2nc(N[C@H](C)c3cnc4ccccc4c3)c3c(n2)C(=O)N(C(C)C)C3)CC1`: in series [1], the fraction unbound at 5 h is 0.0119.

As to `O=c1[nH]c2ccccc2n1C1CCN(CCCC(c2ccc(F)cc2)c2ccc(F)cc2)CC1` [PIMOZIDE], in series [1], the fraction unbound at 5 h is 0.003.

In series [1], `CC(C)(C)OC(=O)NC[C@H]1CC[C@H](CNC(=O)c2ccnc(-c3ccccc3)c2)CC1` gave a fraction unbound at 5 h of 0.0095.

In turn, `COc1cc2c(cc1OC)CN(CCc1ccc(NC(=O)c3cccc4c(=O)c5cccc(OC)c5[nH]c34)cc1)CC2` gave a fraction unbound at 5 h in series [1] of 0.0179.

Consider `c1nc(Cc2ccsc2)c[nH]1`, for which the fraction unbound at 5 h in series [1] is 0.371.

In series [1], `O=[N+]([O-])c1ccc(-c2nc(-c3ccccc3)c(-c3ccccc3)[nH]2)cc1` showed a fraction unbound at 5 h of 0.0006.

As for `COc1cc(C(C)C)c(Oc2cnc(N)nc2N)cc1I`, the fraction unbound at 5 h in series [1] was 0.0383.

Molecule `CC(=O)N1CCN(c2nc3c(c(N(C)Cc4cc5ccccc5cn4)n2)CN(C(C)C)C3=O)CC1` showed a fraction unbound at 5 h in series [1] of 0.339.

Molecule `N=C(N)c1ccc2[nH]c(-c3n[nH]c(-c4ccccc4)c3O)nc2c1` showed a fraction unbound at 5 h in series [1] of 0.119.

Turning to `O=C1Nc2nc(-c3c(O)cccc3OCC3CC3)cc([C@@H]3CCCNC3)c2CO1`, the unbound share (fraction unbound) at 5 h in series [1] is 0.124.

As to `CCOc1ccc2oc(C(=O)NC(CCSC)c3nc4ccccc4[nH]3)c(C)c2c1` (centres undefined), the fraction unbound at 5 h in series [1] was 0.009.

`Cc1nc2ccc(NS(=O)(=O)c3ccc(C)c(C)c3)cc2s1` gave a fraction unbound at 5 h in series [1] of 0.0024.

On to `COc1nc(C)nc(Cl)c1N=C1NCCN1` [MOXONIDINE], for which, in series [1], the free fraction (fraction unbound) at 5 h is 0.886.

With `C[S+]([O-])Cc1ccc(C(=O)Nc2cccnc2C(=O)NCC2CCOCC2)c2ccccc12` (centres undefined), the fraction unbound at 5 h in series [1] is 0.154.

For the molecule `CN(Cc1ccc(-c2ccccc2S(N)(=O)=O)cc1)C(=O)[C@@H]1CCC[C@H]1C(=O)NCc1ccc(OC(F)(F)F)cc1`, the unbound share (fraction unbound) at 5 h in series [1] is 0.003.

For `CN(C)CCn1cc(-c2cc(C(=O)NC[C@H]3CC[C@H](CNC(=O)OC(C)(C)C)CC3)c3ccccc3n2)cn1`, the fraction unbound at 5 h in series [1] was 0.0647.

Regarding `CNCCC(Oc1ccccc1OC)c1ccccc1` (centres undefined) [NISOXETINE], the logD in series [2] (pH 7.4, LogD7.4) is 0.22. The fraction unbound at 5 h in series [3] (PPB) was 0.483. The molecule also came in with a microsomal CLint in series [4] (liver microsomes) of less than 3 µL/min/mg.

The molecule `COc1cccc(S(=O)(=O)c2c(C)n(CC(=O)O)c3ccc(C)cc23)c1` displayed a logD in series [2] (pH 7.4, LogD7.4) of -0.42. This molecule gave a fraction unbound at 5 h in series [3] (PPB) of 0.0063. Besides, the microsomal CLint in series [4] (liver microsomes) was 3 µL/min/mg.

On to `COc1ccc(-c2ccc3nc(N)sc3c2)cn1`, for which the logD in series [2] (pH 7.4, LogD7.4) stood at 3.2. Moreover, the fraction unbound at 5 h in series [3] (PPB) was 0.0383. This molecule returned a microsomal CLint in series [4] (liver microsomes) of 7.76 µL/min/mg.

In series [2] (pH 7.4, LogD7.4), `O=C(NC1CC1)c1cc(-c2cccs2)on1` showed a logD of 2.54. For the same molecule, the fraction unbound at 5 h in series [3] (PPB) was 0.0768. This molecule also had a microsomal CLint in series [4] (liver microsomes) of 38.9 µL/min/mg.

Regarding `CS(=O)(=O)c1ccc(-c2nnc(/C=C/c3nnc(-c4ccc(C#N)cc4)o3)n2-c2ccccc2Cl)nc1`, the logD in series [2] (pH 7.4, LogD7.4) came out at 2.66. This molecule showed a fraction unbound at 5 h in series [3] (PPB) of 0.0633. The microsomal CLint in series [4] (liver microsomes) is less than 3 µL/min/mg.

`CC[C@H](CO)Nc1nc(SCc2ccccc2)nc2nc(N)sc12` gave a logD in series [2] (pH 7.4, LogD7.4) of 3.27. In series [3] (PPB), this molecule showed a fraction unbound at 5 h of 0.013. Moreover, in series [4] (liver microsomes), the intrinsic metabolic clearance (microsomal CLint) turned out to be 8.71 µL/min/mg.

In series [2] (pH 7.4, LogD7.4), `N#CN=C(N)c1sc(Nc2ccccc2)nc1N` displayed a logD of 2.91. This molecule had an unbound share (fraction unbound) at 5 h in series [3] (PPB) of 0.103. The molecule further gave a microsomal CLint in series [4] (liver microsomes) of less than 3 µL/min/mg.

`O=C(NCC12CC3CC(CC(C3)C1)C2)c1cc(N2CCNCC2)ccc1Cl` returned a logD in series [2] (pH 7.4) of 1.77. In series [3], this molecule gave a fraction unbound at 5 h of 0.0268. Moreover, the microsomal CLint in series [4] (microsomes) was determined as 11 µL/min/mg. The molecule also yielded a solubility (thermodynamic) in series [5] of 224 µM (≈ 86.9 µg/mL).

As to `OCC(CO)Nc1nc(SCc2cccc(F)c2F)nc2nc(NC3CC3)sc12`, in series [2] (pH 7.4, LogD7.4), the logD was 3.11. The fraction unbound at 5 h in series [3] (PPB) is 0.051. The molecule further gave an intrinsic clearance (microsomal CLint) in series [4] (liver microsomes) of 46 µL/min/mg.
